Source: patent US9611251B2, “Substituted piperidine compounds and their use as orexin receptor modulators” (Janssen Pharmaceutica NV, priority 2013, dated 2017)

Tests used:
human orexin 1 receptor = human orexin 1 receptor (Homo sapiens, UniProt O43613); test: Human orexin 1 receptor radioligand binding; conditions: human orexin 1 receptor radioligand binding; averages of 2-20 runs; read-out: hOX1 Ki
Method: The in vitro affinity of the compounds of the invention for the rat/human orexin 1 and human orexin 2 receptors was determined by competitive radioligand binding using [^3H](1-(5-(2-fluoro-phenyl)-2-methyl-thiazol-4-yl)-1-((S)-2-(5-phenyl-(1,3,4)oxadiazol-2-ylmethyl)-pyrrolidin-1-yl)-methanone) (Langmead et al., 2004) and [^3H]EMPA (n-ethyl-2[96-methoxypyridin-3-yl)-(toluene-2-sulfonyl)-amino]-N-pyridin-3-ylmethyl acetamide), respectively (Langmead et al., 2004, British Journal of Pharmacology 141:340-346; Malherbe et al., 2004, British Journal of Pharmacology 156:1326-41).
(§1) Data are analyzed using pc-Sandy macro and graphed on Graphpad Prism 5. For analysis, each concentration point is averaged from triplicate values and the averaged values are plotted on Graphpad Prism. The IC50 was determined by applying the following equation (GraphPad Prism 5.0, SanDiego) for one site competition where X=log (concentration) and Y=specific binding. Top denotes the total [^3H]-(1-(5-(2-fluoro-phenyl)-2-methyl-thiazol-4-yl)-1-((S)-2-(5-phenyl-(1,3,4)oxadiazol-2-ylmethyl)-pyrrolidin-1-yl)-methanone) binding, bottom denotes the nonspecific [^3H]-(1-(5-(2-fluoro-phenyl)-2-methyl-thiazol-4-yl)-1-((S)-2-(5-phenyl-(1,3,4)oxadiazol-2-ylmethyl)-pyrrolidin-1-yl)-methanone) binding. Graphpad Prism calculates Ki value from IC50 and the pre-determined Kd values for [^3H]-(1-(5-(2-fluoro-phenyl)-2-methyl-thiazol-4-yl)-1-((S)-2-(5-phenyl-(1,3,4)oxadiazol-2-ylmethyl)-pyrrolidin-1-yl)-methanone) and [3H]-EMPA. The Ki for each compound is then uploaded into 3DX. Each run comprises individual compounds in triplicate.
(§2) Rat and Human Orexin 1 Receptor Radioligand Binding Studies
Human Embryonic Kidney 293 cells (HEK293) stably expressing rat orexin 1 receptor (Genebank accession number NM_001525) or Chinese ovary cells (CHO) stably expressing human orexin 1 receptor (Genebank accession number NM_001526) were grown to confluency in DMEM (Hyclone, cat #SH30022), 10% FBS, 1×Pen/Strep, 1× sodium pyruvate, 10 mM HEPES, 600 μg/mL G418 and DMEM/F12 (Gibco, Cat #11039), 10% FBS, 1×Pen/Strep, 600 μg/mL G418 media, respectively on 150 cm^2 tissue culture plates, washed with 5 mM EDTA in PBS (HyClone Dulbecco's Phosphate Buffered Saline 1× with Calcium and Magnesium, Cat #SH30264.01, hereafter referred to simply as PBS) and scraped into 50 ml tubes. After centrifugation (2K×G, 5 min at 4° C.), the supernatant was aspirated and the pellets frozen and stored at −80° C. Cells were resuspended in PBS in the presence of 1 tablet of protease inhibitor cocktail (Roche, Cat. #11836145001) per 50 mL. Each cell pellet from a 15 cm plate was resuspended in 10 mL, stored on ice, and homogenized for 45 sec prior to addition to the reactions. Competition binding experiments in 96 well polypropylene plates were performed using [^3H]-(1-(5-(2-fluoro-phenyl)-2-methyl-thiazol-4-yl)-1-((S)-2-(5-phenyl-(1,3,4)oxadiazol-2-ylmethyl)-pyrrolidin-1-yl)-methanone) (Moraveck Corporation, specific activity=35.3 Ci/mmol), diluted to a 10 nM concentration in PBS (4 nM final). […] The final concentration of DMSO in the reactions is equal to or less than 0.1%. Total and nonspecific binding was determined in the absence and presence of 10 μM almorexant. The total volume of each reaction is 200 μL (20 μL of diluted compounds, 80 μL of [^3H]-(1-(5-(2-fluoro-phenyl)-2-methyl-thiazol-4-yl)-1-((S)-2-(5-phenyl-(1,3,4)oxadiazol-2-ylmethyl)-pyrrolidin-1-yl)-methanone) diluted in PBS and 100 μL of the cell suspension). Reactions were run for 60 min at room temperature and terminated by filtration through GF/C filter plates (PerkinElmer, Cat. #6005174) presoaked in 0.3% polyethylenimine using the cell harvester (PerkinElmer Filtermate). The plates were washed 3 times by aspirating 30 ml PBS through the plates. Plates were dried in 55° C. oven for 60 min, scintillation fluid was added, and the radioactivity was counted on a Topcount (Packard).

human orexin 2 receptor = human orexin 2 receptor (Homo sapiens (Human), UniProt O43614); test: Human orexin 2 receptor radioligand binding ([3H]-EMPA); conditions: averages of 2-20 runs, read-out: hOX2 Ki
human orexin 2 receptor, sequence (O43614 whole entry): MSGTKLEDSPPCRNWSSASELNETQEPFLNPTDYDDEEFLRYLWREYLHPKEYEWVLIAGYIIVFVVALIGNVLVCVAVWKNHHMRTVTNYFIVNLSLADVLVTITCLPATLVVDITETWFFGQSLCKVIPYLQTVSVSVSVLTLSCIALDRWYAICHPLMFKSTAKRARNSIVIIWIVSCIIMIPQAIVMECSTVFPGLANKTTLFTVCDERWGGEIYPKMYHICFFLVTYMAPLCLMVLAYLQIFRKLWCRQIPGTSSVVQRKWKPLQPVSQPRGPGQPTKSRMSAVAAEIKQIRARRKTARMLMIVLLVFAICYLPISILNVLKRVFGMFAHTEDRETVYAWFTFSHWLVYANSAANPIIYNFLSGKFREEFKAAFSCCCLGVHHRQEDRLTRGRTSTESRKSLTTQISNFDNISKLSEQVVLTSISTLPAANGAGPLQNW
Method: as §1
Human Orexin 2 Receptor Radioligand Binding Studies
HEK293 stably expressing human orexin 2 receptor (Genebank accession number NM_001526) were grown to confluency in DMEM (Hyclone, cat #SH30022), 10% FBS, 1×Pen/Strep, 1× NaPyruvate, 10 mM HEPES, 600 ug/ml G418 media on 150 cm^2 tissue culture plates, washed with 5 mM EDTA in PBS (HyClone Dulbecco's Phosphate Buffered Saline 1× with Calcium and Magnesium, Cat #SH30264.01, hereafter referred to simply as PBS) and scraped into 50 ml tubes. After centrifugation (2K×G, 5 min at 4° C.), the supernatant was aspirated and the pellets frozen and stored at −80° C. […] Each cell pellet from a 15 cm plate was resuspended in 10 mL, stored on ice, and homogenized for 45 sec just prior to addition to the reactions. Competition binding experiments in 96 well polypropylene plates were performed using [^3H]-EMPA (Moraveck Corporation, specific activity=29.6 Ci/mmol), diluted to a 5 nM concentration in PBS (2 nM final concentration). […] The final concentration of DMSO in the reactions is equal to or less than 0.1%. Total and nonspecific binding was determined in the absence and presence of 10 μM almorexant. The total volume of each reaction is 200 μL (20 μL of diluted compounds, 80 μL of [^3H]-EMPA diluted in PBS and 100 μL of the cell suspension). […] The plates were washed 3 times by aspirating 30 ml PBS through the plates. Plates were dried in 55° C. oven for 60 min, scintillation fluid was added, and the radioactivity was counted on a Topcount (Packard).

rat orexin 1 receptor = rat orexin 1 receptor (Rattus norvegicus, UniProt P56718); test: Rat orexin 1 receptor radioligand binding; conditions: rat orexin 1 receptor radioligand binding; averages of 2-20 runs; read-out: rOX1 Ki
Method: as §1, §2
After centrifugation (2K×G, 5 min at 4° C.), the supernatant was aspirated and the pellets frozen and stored at −80° C. […] Each cell pellet from a 15 cm plate was resuspended in 10 mL, stored on ice, and homogenized for 45 sec prior to addition to the reactions. Competition binding experiments in 96 well polypropylene plates were performed using [^3H]-(1-(5-(2-fluoro-phenyl)-2-methyl-thiazol-4-yl)-1-((S)-2-(5-phenyl-(1,3,4)oxadiazol-2-ylmethyl)-pyrrolidin-1-yl)-methanone) (Moraveck Corporation, specific activity=35.3 Ci/mmol), diluted to a 10 nM concentration in PBS (4 nM final). […] The final concentration of DMSO in the reactions is equal to or less than 0.1%. Total and nonspecific binding was determined in the absence and presence of 10 μM almorexant. The total volume of each reaction is 200 μL (20 μL of diluted compounds, 80 μL of [^3H]-(1-(5-(2-fluoro-phenyl)-2-methyl-thiazol-4-yl)-1-((S)-2-(5-phenyl-(1,3,4)oxadiazol-2-ylmethyl)-pyrrolidin-1-yl)-methanone) diluted in PBS and 100 μL of the cell suspension). […] The plates were washed 3 times by aspirating 30 ml PBS through the plates. Plates were dried in 55° C. oven for 60 min, scintillation fluid was added, and the radioactivity was counted on a Topcount (Packard).

Row | SMILES | Ki (human orexin 1 receptor) | Ki (human orexin 2 receptor) | Ki (rat orexin 1 receptor)
1 | COc1ccc(C(=O)N2CCC[C@@H](Nc3ccc(Cl)cn3)[C@@H]2C)c(-n2nccn2)c1 (relative stereo) [Example 181, ((2S*,3R*)-3-((5-chloropyridin-2-yl)amino)-2-methylpiperidin-1-yl)(4-methoxy-2-(2H-1,2,3-triazol-2-yl)phenyl)methanone] | 176 nM | 5200 nM | 93 nM
2 | Cc1cnc(C(=O)N2CCC[C@@H](N(C)c3nc4ccccc4o3)[C@@H]2C)c(-n2nccn2)c1 (relative stereo) [Example 187, ((2S*,3R*)-3-(benzo[d]oxazol-2-yl(methyl)amino)-2-methylpiperidin-1-yl)(5-methyl-3-(2H-1,2,3-triazol-2-yl)pyridin-2-yl)methanone] | 39 nM |  | 20 nM
3 | Cc1ccc(C(=O)N2CCC[C@@H](N(C)c3ccc(C(F)(F)F)cn3)[C@@H]2C)c(-n2nccn2)n1 (relative stereo) [Example 188, (6-methyl-2-(2H-1,2,3-triazol-2-yl)pyridin-3-yl)((2S*,3R*)-2-methyl-3-(methyl(5-(trifluoromethyl)pyridin-2-yl)amino)piperidin-1-yl)methanone] | 100 nM | > 10000 nM | 92 nM
4 | C[C@H]1[C@H](Nc2ccc(C(F)(F)F)cn2)CCCN1C(=O)c1cccc(F)c1-c1ncccn1 (relative stereo) [Example 189, (3-fluoro-2-(pyrimidin-2-yl)phenyl)((2S*,3R*)-2-methyl-3-((5-(trifluoromethyl)pyridin-2-yl)amino)piperidin-1-yl)methanone] | 5 nM | 175 nM | 7 nM
5 | Cc1noc(-c2cc(F)ccc2C(=O)N2CCC[C@@H](Nc3ccc(C(F)(F)F)cn3)[C@@H]2C)n1 (relative stereo) [Example 190, (4-fluoro-2-(3-methyl-1,2,4-oxadiazol-5-yl)phenyl)((2S*,3R*)-2-methyl-3-((5-(trifluoromethyl)pyridin-2-yl)amino)piperidin-1-yl)methanone] | 18 nM |  | 26 nM
6 | C[C@H]1[C@H](Nc2nc3ccccc3o2)CCCN1C(=O)c1cccc(F)c1-c1ncccn1 (relative stereo) [Example 204, ((2S*,3R*)-3-(benzo[d]oxazol-2-ylamino)-2-methylpiperidin-1-yl)(3-fluoro-2-(pyrimidin-2-yl)phenyl)methanone] | 16 nM | 292 nM | 14 nM

Second part, the compound after the results:

Row | Ki (human orexin 1 receptor) | Ki (human orexin 2 receptor) | Ki (rat orexin 1 receptor) | SMILES
7 | 6 nM | 191 nM | 7 nM | COc1ccc(-n2nccn2)c(C(=O)N2CCC[C@@H](Nc3cnc(C(F)(F)F)cn3)[C@@H]2C)c1 (relative stereo) [Example 184, (5-methoxy-2-(2H-1,2,3-triazol-2-yl)phenyl)((2S*,3R*)-2-methyl-3-((5-(trifluoromethyl)pyrazin-2-yl)amino)piperidin-1-yl)methanone]
8 | 9 nM | 421 nM | 12 nM | C[C@H]1[C@H](Nc2ccc(C(F)(F)F)cn2)CCCN1C(=O)c1ccc(F)cc1-c1ncccn1 (relative stereo) [Example 191, (4-fluoro-2-(pyrimidin-2-yl)phenyl)((2S*,3R*)-2-methyl-3-((5-(trifluoromethyl)pyridin-2-yl)amino)piperidin-1-yl)methanone]
9 | 25 nM | 543 nM | 27 nM | C[C@H]1[C@H](Nc2ccc(C(F)(F)F)cn2)CCCN1C(=O)c1ccc(F)cc1-n1nccn1 (relative stereo) [Example 192, (4-fluoro-2-(2H-1,2,3-triazol-2-yl)phenyl)((2S*,3R*)-2-methyl-3-((5-(trifluoromethyl)pyridin-2-yl)amino)piperidin-1-yl)methanone]
10 | 92 nM | 2500 nM | 119 nM | C[C@H]1[C@H](Nc2ncc(C(F)(F)F)cn2)CCCN1C(=O)c1ccc(F)cc1-n1nccn1 (relative stereo) [Example 198, (4-fluoro-2-(2H-1,2,3-triazol-2-yl)phenyl)((2S*,3R*)-2-methyl-3-((5-(trifluoromethyl)pyrimidin-2-yl)amino)piperidin-1-yl)methanone]
11 | 206 nM | 2400 nM | 154 nM | CCOc1ccc(C)nc1C(=O)N1CCC[C@@H](Nc2ncc(C(F)(F)F)cn2)[C@@H]1C (relative stereo) [Example 199, (3-ethoxy-6-methylpyridin-2-yl)((2S*,3R*)-2-methyl-3-((5-(trifluoromethyl)pyrimidin-2-yl)amino)piperidin-1-yl)methanone]
12 | 21 nM |  | 24 nM | Cc1ccc(C(=O)N2CCC[C@@H](Nc3ccc(C(F)(F)F)cn3)[C@@H]2C)c(-n2nccn2)n1 [Example 98, (6-methyl-2-(2H-1,2,3-triazol-2-yl)pyridin-3-yl)((2S,3R)-2-methyl-3-((5-(trifluoromethyl)pyridin-2-yl)amino)piperidin-1-yl)methanone]
